According to patent US9376700B2, “Methods of modifying N-termini of a peptide or protein using transferases” (The Trustees of the University of Pennsylvania, priority 2012, dated 2016):

Experiments:
Assay type in all cases: biochemical
[1] = molecular target: T1, E. coli aminoacyl transferase (AaT) (Escherichia coli, UniProt P0A8P1); test: LysAlaAcm ligation assay: AaT-catalyzed transfer from aminoacyl adenosine donor to LysAlaAcm, HPLC at 325 nm; set-up: made in house; host or cells: E. coli BL21-Gold (DE3), plasmid pEG6, Ni-NTA purified; conditions: for Transfer to LysAlaAcm by AaT (in words): reactions analyzed after 4 h; for Ligated Product Yield (%): 4 h
T1 sequence (P0A8P1 whole entry): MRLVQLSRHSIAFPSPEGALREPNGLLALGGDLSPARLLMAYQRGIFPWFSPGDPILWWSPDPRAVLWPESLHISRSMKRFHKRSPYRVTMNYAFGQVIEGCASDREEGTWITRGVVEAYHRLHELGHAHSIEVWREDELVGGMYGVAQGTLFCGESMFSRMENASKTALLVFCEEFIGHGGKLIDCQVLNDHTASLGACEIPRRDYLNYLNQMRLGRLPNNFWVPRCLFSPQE
Procedure: Each ligation reaction, 125 μL total volume, contained the following reagents: aminoacyl adenosine donor (1 mM), recombinant His10-tagged E. coli aminoacyl transferase (2.26 μM), and LysAlaAcm (100 μM) in the AaT Ligation Buffer (50 mM HEPES pH 8.0, 150 mm KCl, 10 mM MgCl2). The reaction mixtures were incubated at 37° C. for four hours and quenched with 1% acetic acid. The proteins were extracted from the reactions via acetone precipitation. The reactions were precipitated using 4× reaction volume of acetone and cooled at −20° C. for 1 h. Next, the reactions were centrifuged at 13,200 rpm at 4° C. for 20 min to separate the reaction from precipitated protein. The supernatant was transferred to fresh 1.5 mL centrifuge tubes and allowed for acetone evaporation overnight at room temperature. After acetone evaporation, the supernatant was dried in a Speedvac (Savant, Thermo Scientific, Fisher Inc.) for 30 min to remove residual acetone. The resulting reaction volume was dissolved up to 1.2 mL using Milli-Q water and analyzed by HPLC (gradient below) to determine ligation yield by integration of separated peak intensities monitored at 325 nm. Collected HPLC fractions were characterized through MALDI MS analysis. […] Reactions using Phe-pdCpA as donor were carried out in an identical fashion (Ellman, et al., 1991, Methods Enzymol. 202:301-336).
All HPLC analyses of LysAlaAcm ligations were monitored on an Agilent HPLC using a Waters C18 column (Milford, Mass.).
All HPLC analyses of LysAlaAcm ligations were monitored as described elsewhere herein (Gradient 1).
(§1) The extent of transfer was evaluated by HPLC analysis of reactions with adenosyl donor, AaT or BpT, and an aminocoumarin-labeled reporter peptide (for AaT, LysAlaAcm was used as previously described by Tirrell and co-workers; for BpT, AspAlaAcm was used in an analogous fashion) (Connor et al., 2008, ChemBioChem 9:366-369). Monitoring LysAlaAcm or AspAlaAcm acylation in crude reaction mixtures using absorbance at 325 nm conveniently eliminates background due to other proteins and nucleic acids, although some non-natural amino acids such as naphthylalanine (Nap) and methoxycoumarinylalanine (Mcm) also absorb in this range.
To evaluate substrate scope, reactions were analyzed after 4 h, when transfer should be complete for the fully enzymatic reaction with Phe tRNA synthetase (Connor et al., 2008, ChemBioChem 9:366-369).

[2] = system: V. vulnificus BpT; test: AspAlaAcm ligation assay: BpT-catalyzed transfer from adenosyl donor to AspAlaAcm; conditions: single addition of donor, 100 μM AspAlaAcm, 2.26 μM BpT, standard BpT-catalyzed transfer conditions
Procedure: Ligation test reactions with V. vulnificus Bpt were conducted in a manner identical to the AaT LysAlaAcm ligation assay with the following exceptions, 2.26 μM BpT was used rather than 2.26 μM AaT, 100 μM AspAlaAcm was used rather than 100 μM LysAlaAcm, and BpT Ligation Buffer (50 mM HEPES, pH 8, 150 mM KO, 10 mM MgCl2) was used rather than AaT Ligation Buffer.
as §1

[3] = molecular target: T1, E. coli aminoacyl transferase (AaT); test: A/AMP/ATP/pdCpA inhibition studies of ligation with Phe donor 4a; set-up: made in house; host or cells: E. coli BL21-Gold (DE3), plasmid pEG6, Ni-NTA purified; conditions: tested at 1 mM, 2.5 mM and 5 mM with Phe donor 4a
Procedure: Each ligation reaction was performed as described elsewhere herein.
To better understand limitations on the yield from AaT reactions, the possibilities of inhibition by hydrolyzed substrate or aminoacylated product were assessed. Since the acyl adenosine donor substrate is not regenerated during the reaction (unlike the aaRS/tRNA/AaT reaction), it was hypothesized that the adenosine byproduct might inhibit further acylation by binding to AaT. To investigate this possibility, adenosine was added to the reaction at varying concentrations and monitored the reaction timecourse by fluorescence spectroscopy and by HPLC.

[4] = single addition of 1 mM donor, 100 μM LysAlaAcm, 2.26 μM AaT, 37° C., no additive

| Compound | Transfer to LysAlaAcm by AaT (in words) [1] | Ligated Product Yield (%) [1, 4] | also measured |
| --- | --- | --- | --- |
| CC(C)C[C@H](N)C(=O)O[C@@H]1[C@H](O)[C@@H](CO)O[C@H]1n1cnc2c(N)ncnc21 [4b, (S)-(2R,3R,4R,5R)-2-(6-amino-9H-purin-9-yl)-4-hydroxy-5-(hydroxymethyl)tetrahydrofuran-3-yl 2-amino-4-methylpentanoate] | transferred efficiently | 80.4 ± 0.9% | Ligated Product Yield (%) [2]: 5% |
| Nc1ncnc2c1ncn2[C@@H]1O[C@H](CO)[C@@H](O)[C@H]1OC(=O)[C@@H](N)Cc1ccc2ccccc2c1 [4d, (S)-(2R,3R,4R,5R)-2-(6-amino-9H-purin-9-yl)-4-hydroxy-5-(hydroxymethyl)tetrahydrofuran-3-yl 2-amino-3-(naphthalen-2-yl)propanoate] |  | 95.4 ± 0.4% | Ligated Product Yield (%) ([1]; single addition of donor, additive 100 μM PheLysAlaAcm): 93.8 ± 0.3% |
| CN[C@@H](Cc1ccccc1)C(=O)O[C@@H]1[C@H](O)[C@@H](CO)O[C@H]1n1cnc2c(N)ncnc21 [4e, (S)-(2R,3R,4R,5R)-2-(6-amino-9H-purin-9-yl)-4-hydroxy-5-(hydroxymethyl)tetrahydrofuran-3-yl 2-(methylamino)-3-phenylpropanoate] | transferred, albeit with low yield | 0.6 ± 0.1% |  |
| CC(=O)N[C@@H](Cc1ccccc1)C(=O)O[C@@H]1[C@H](O)[C@@H](CO)O[C@H]1n1cnc2c(N)ncnc21 [4f, (S)-(2R,3R,4R,5R)-2-(6-amino-9H-purin-9-yl)-4-hydroxy-5-(hydroxymethyl)tetrahydrofuran-3-yl 2-acetamido-3-phenylpropanoate] | poor substrates | 5f not observed |  |
| [N-]=[N+]=N[C@@H](Cc1ccccc1)C(=O)O[C@@H]1[C@H](O)[C@@H](CO)O[C@H]1n1cnc2c(N)ncnc21 [4g, (S)-(2R,3R,4R,5R)-2-(6-amino-9H-purin-9-yl)-4-hydroxy-5-(hydroxymethyl)tetrahydrofuran-3-yl 2-azido-3-phenylpropanoate] | poor substrates | 5g not observed^c |  |
| COc1ccc2c(C[C@H](N)C(=O)O[C@@H]3[C@H](O)[C@@H](CO)O[C@H]3n3cnc4c(N)ncnc43)cc(=O)oc2c1 [4h, (S)-(2R,3R,4R,5R)-2-(6-amino-9H-purin-9-yl)-4-hydroxy-5-(hydroxymethyl)tetrahydrofuran-3-yl 2-amino-3-(7-methoxy-2-oxo-2H-chromen-4-yl)propanoate] | too large | 5h not observed |  |
| Nc1ncnc2c1ncn2[C@@H]1O[C@H](CO)[C@@H](O)[C@H]1OC(=O)[C@@H](N)Cc1ccc(C(=O)c2ccccc2)cc1 [4i, (S)-(2R,3R,4R,5R)-2-(6-amino-9H-purin-9-yl)-4-hydroxy-5-(hydroxymethyl)tetrahydrofuran-3-yl 2-amino-3-(4-benzoylphenyl)propanoate] | poor substrate | 9.2 ± 0.3% |  |
| CSCC[C@H](N)C(=O)O[C@@H]1[C@H](O)[C@@H](CO)O[C@H]1n1cnc2c(N)ncnc21 [4j, (S)-(2R,3R,4R,5R)-2-(6-amino-9H-purin-9-yl)-4-hydroxy-5-(hydroxymethyl)tetrahydrofuran-3-yl 2-amino-4-(methylthio)butanoate] |  | 21.9% |  |
| CSSC[C@H](N)C(=O)O[C@@H]1[C@H](O)[C@@H](CO)O[C@H]1n1cnc2c(N)ncnc21 [4k, (R)-(2R,3R,4R,5R)-2-(6-amino-9H-purin-9-yl)-4-hydroxy-5-(hydroxymethyl)tetrahydrofuran-3-yl 2-amino-3-(methyldisulfanyl)propanoate] |  | 20.1% |  |
| CC(C)SSC[C@H](N)C(=O)O[C@@H]1[C@H](O)[C@@H](CO)O[C@H]1n1cnc2c(N)ncnc21 [4l, (R)-(2R,3R,4R,5R)-2-(6-amino-9H-purin-9-yl)-4-hydroxy-5-(hydroxymethyl)tetrahydrofuran-3-yl 2-amino-3-(isopropyldisulfanyl)propanoate] |  | 42.3% | Ligated Product Yield (%) [2]: 20% |
| CSSCC[C@H](N)C(=O)O[C@@H]1[C@H](O)[C@@H](CO)O[C@H]1n1cnc2c(N)ncnc21 [4n, (S)-(2R,3R,4R,5R)-2-(6-amino-9H-purin-9-yl)-4-hydroxy-5-(hydroxymethyl)tetrahydrofuran-3-yl 2-amino-4-(methyldisulfanyl)butanoate] |  | 27.8% |  |
| Nc1ncnc2c1ncn2[C@@H]1O[C@H](COP(=O)(O)OP(=O)(O)OP(=O)(O)O)[C@@H](O)[C@H]1O [ATP, adenosine triphosphate] |  |  | Inhibition of the reaction, comparison of adenosine compounds [3]: inhibited the reaction |
| PheLysAlaAcm |  |  | Product inhibition of NapLysAlaAcm (5d) production from Nap-A (4d) ([1]; 100 μM (1 equiv) added, standard 4 h transfer assay): did not significantly inhibit |
